Reference: patent publication US4880826A, “Melatonin antagonist” (priority 1986, dated 1989)

What was measured:
prepubertal male rats = assay: Long-term administration to prepubertal male rats: accessory sex organ development and testosterone; format: in vivo, rat
From the text: (1) Long-term administration of melatonin (via the drinking water or via intraperitoneal injection) to prepubertal male rats results in retardation of testicular accessory sex organ development.
(4) Long-term administration of ML-23 alone to prepubertal male rats, enhanced testosterone levels in the blood of the animals.

adult female rats = assay: Melatonin block of luteinizing hormone secretion and ovulation in adult female rats at proestrus; format: in vivo, rat
From the text: (2) Melatonin administration to adult female rats in the afternoon of proestrus blocks the phasic secretion of luteinizing hormone and ovulation.

[1] = tested on: Female rats kept under constant illumination; assay: Ovarian cyclicity of female rats kept under constant illumination; format: in vivo, rat
rat hypothalamus = conditions: cited from earlier work
Melatonin receptor = Melatonin receptor assay using 2-125I-iodo-ML-23; format: binding, rat; conditions: female rats: hypothalamus, medulla-pons, hippocampus, cerebellum, striatum, parietal cortex
Method: Tissue sections or isolated cells were suspended in 10 ml/g ice-cold 0.32M sucrose, homogenized in a teflon-glass homogenizer. The homogenate was centrifuged (10000 g-min) the pellet was discarded and the supernatant centrifuged (68000 g-min). The crude membrane pellet was suspended in 2 vol of 50 mM Tris-HCL buffer, pH 7.4 containing 4 mM CaCl2. 2-^125 I-iodo-ML-23 was prepared by iodination of ML-23 with Na^125 I (Amersham) (20 CI/mmol) in the presence of Iodo-Gen. The principal iodination product, 2-^125 I-iodo-ML 23 (^125 I-MLI-23) was separated from unsubstituted ML-23 as described in Example 2. Aliquots of the membrane preparations (200 μg protein/20 μl) were incubated with 40 μl Trisbuffer containing 20-100 nM ^125 I-MLI-23 for 30 min. at 37° C. on a shaking water bath, in the absence or presence of unlabelled melatonin (50 μM). Membranes were then collected by vacuum filtration using GF/C glass fiber filters and washed with 3×4 ml buffer at 4° C. The filters containing bound ^125 I-ML-23 were assayed for radioactivity using a Packard gamma counter. Specific binding was defined as that displaced by 50 μM of non-radioactive melatonin and ranged from 50 to 60% of the total binding at 50 nM ^125 I-MLI-23. […]

[2] = oral administration in the presence of melatonin

With COc1ccc2[nH]cc(CCNC(C)=O)c2c1 [melatonin, 5-methoxy-N-acetyl-tryptamine] the “testicular accessory sex organ development” value (prepubertal male rats; long-term administration via the drinking water or intraperitoneal injection) was “retardation”, the “phasic secretion of luteinizing hormone and ovulation” value (adult female rats; administration in the afternoon of proestrus, adult female rats) was “blocks” and the ovarian cyclicity ([1]; daily melatonin injections, female rats under constant illumination) was “reestablish ovarian cyclicity”. The “stimulated release of dopamine” value (rat hypothalamus) was “inhibits”.
In the case of COc1ccc2[nH]c([125I])c(CCNc3ccc([N+](=O)[O-])cc3[N+](=O)[O-])c2c1 [^125 I-MLI-23], the “specific binding in brain regions” value (Melatonin receptor) is reported as “found”.
In the case of COc1ccc2[nH]cc(CCNc3ccc([N+](=O)[O-])cc3[N+](=O)[O-])c2c1 [ML-23, N-2,4-dinitrophenyl-5-methoxy-tryptamine], the “testosterone levels in the blood” value (prepubertal male rats; long-term administration alone) is reported as “enhanced”, the “effect on melatonin's suppressive effects on prostate and seminal vesicle growth” value (prepubertal male rats; [2]) is reported as “entirely abolished” and the “effect on melatonin's suppressive effects on serum testosterone levels” value (prepubertal male rats; [2]) is reported as “entirely abolished”. For the same compound, the “effect on melatonin block of luteinizing hormone secretion and ovulation” value (adult female rats; via the drinking water, female rats given melatonin) was “prevented the effect of melatonin and normal ovulation occurred” and the “ovarian cyclicity re-established by daily melatonin injections” value ([1]; rats treated orally with the antagonist, constant illumination) was “not in rats treated orally with ML-23”.
